Data on five compounds can be found in US20020165208A1, “Compositions and methods relating to hypertension” (priority 2000, published 2002).

Read-outs that look alike come from different tables or passages of the source.

Series [1] addresses T1, recombinant Cyp 4a14 (Mus musculus, UniProt O35728).
T1 construct: A KpnI-XhoI cDNA fragment (1.9 kb) was subcloned into the pBlueBac IV vector; made in house; host or cells: Sf9 insect cells / baculovirus (pBlueBac IV, Invitrogen)
T1 sequence (O35728 5-507): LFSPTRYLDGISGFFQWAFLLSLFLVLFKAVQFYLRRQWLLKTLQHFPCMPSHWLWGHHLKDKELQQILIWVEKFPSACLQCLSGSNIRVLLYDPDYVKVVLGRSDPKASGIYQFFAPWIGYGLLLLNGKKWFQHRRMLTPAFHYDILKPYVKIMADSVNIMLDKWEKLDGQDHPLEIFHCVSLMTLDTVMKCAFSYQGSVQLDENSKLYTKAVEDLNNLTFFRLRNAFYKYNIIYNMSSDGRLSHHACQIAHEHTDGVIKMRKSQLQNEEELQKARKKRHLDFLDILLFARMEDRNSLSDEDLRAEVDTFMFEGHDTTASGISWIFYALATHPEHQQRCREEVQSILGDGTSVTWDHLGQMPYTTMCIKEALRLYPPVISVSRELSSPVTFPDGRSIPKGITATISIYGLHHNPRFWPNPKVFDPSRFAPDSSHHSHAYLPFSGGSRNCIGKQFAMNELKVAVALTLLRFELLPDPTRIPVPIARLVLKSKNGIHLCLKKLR
The experiment in a line: Substrate oxidation by purified recombinant Cyp 4a14. It counts as biochemical. The procedure:
(§1) Kidney microsomes were isolated from treated and nontreated Cyp 4a14 (+/+) and (−/−) mice (21), suspended (1-2 mg of protein/ml) in 0.05 M Tris·Cl (pH 7.4) containing 0.15 M KCl and 10 mM MgCl2, and incubated with [1^14C]AA or lauric acid (100 μM, 5 μCi/μmol each) and NADPH (1 mM) at 35° C. Reaction products were resolved and quantified as described (21). For antibody inhibition, microsomes were incubated (30 min at 22° C.) with rabbit anti-CYP 4A2 or nonimmune serum (0.1-1 mg of protein/ml) before enzymatic analysis. Recombinant Cyp 4a14 (0.1-1 μM) was incubated with [1-^14C]-labeled AA or lauric acid in the presence of purified P450 reductase, cytochrome b5, dilauroylphosphatidylcholine, and NADPH (1 mM), as described (15, 21). Urine collections (8-12 h) were incubated at 35° C. for 2-3 h with -glucoronidase (22) (Sigma) (1 mg/ml) and, after purification, the levels of 19- and 20-HETE were quantified by mass spectroscopy (22).

The test system of series [2] is Cyp 4a14 (+/+) and (−/−) mice. The series can be described thus: Arterial blood pressure of conscious mice by right carotid artery catheter. Conditions: for Effect on hypertensive phenotype (blood pressure): castrated Cyp 4a14 (−/−) mice, androgen-releasing pellets. It counts as in vivo, mouse. Here is the method: The arterial blood pressures of conscious 12- to 14-week-old mice were measured by means of a right carotid artery catheter (300-500 μm OD). After surgery (24-48 h), animals were allowed to become familiar with the environment and, after stabilization, their arterial blood pressures were monitored continuously for at least 30 min by using a pressure transducer. […] For measurements of afferent arteriolar diameter, male kidneys were perfused in vitro with a physiological salt solution supplemented with a mixture of L-amino acids (23), and the juxtamedullary vasculature was monitored continuously by videomicroscopy, as described (23). The relationship between afferent arteriolar diameter and perfusion pressure was determined at 80, 120, and 160 mm Hg. Perfusion pressure changes were followed by a 3-min equilibration before steady-state diameter measurements (23).

The test system of series [3] is Arachidonic acid ω-hydroxylase of mouse kidney microsomes. Conditions: DHT pellets. The procedure: as §1
The subject of series [4] is Cyp 4a12 transcripts. Conditions: DHT-treated castrated Cyp 4a14 (−/−) mice.
Description: Top frame: Samples of total RNA (5-10 μg each) from the kidneys of control (A), castrated (B), castrated and DHT-treated (C) males or from control (D) and DHT-treated (E) females were fractionated by agar electrophoresis, transferred to nitrocellulose membranes, and hybridized to ^32P-labeled DNA probes (400-500 bp) coding for segments of the 3′-untranslated end of the Cyp 4a10, 4a12, and 4a14 cDNAs. After high-stringency washes, the membranes were exposed to x-ray films for 4, 2, or 21 h for male Cyp 4a10, 4a12, and 4a14, respectively, and 6, 21, or 12 h for female Cyp 4a10, 4a12, and 4a14, respectively. RNA loadings were normalized by using a -actin cDNA probe. […] Bottom frame: Dehydrated paraffin sections from the kidneys of control (A and A′), castrated (B and B′) and DHT-treated castrated male mice (C and C′) were hybridized to [^35S]-labeled riboprobes encoding 3′-end untranslated segments of the Cyp 4a12 cDNA. After washing, RNase A treatment, and dehydration, the sections were dipped in emulsion (IlfordK5; Knutsford, Cheshire, U.K.), exposed for 4-5 days at 4° C., and developed by using D-19 (Kodak). Slides were counterstained with hematoxylin. Photomicrographs were obtained by using either dark-field (3×) (A-C) or bright-field (100×) (A′, B′, and C′) optics.
The nature of series [5]: Plasma androgen levels (TST and DHT) by RIA in castrated, pellet-implanted mice. Conditions: for concentration at 10 days: male, mouse, in vivo, 5 mg DHT/day, Plasma DHT level, DHT-releasing pellets, ten days after implantation.
In series [6] the target is T2, rat CYP 4A1 (Rattus norvegicus, UniProt P08516).
T2 sequence (P08516 1-509): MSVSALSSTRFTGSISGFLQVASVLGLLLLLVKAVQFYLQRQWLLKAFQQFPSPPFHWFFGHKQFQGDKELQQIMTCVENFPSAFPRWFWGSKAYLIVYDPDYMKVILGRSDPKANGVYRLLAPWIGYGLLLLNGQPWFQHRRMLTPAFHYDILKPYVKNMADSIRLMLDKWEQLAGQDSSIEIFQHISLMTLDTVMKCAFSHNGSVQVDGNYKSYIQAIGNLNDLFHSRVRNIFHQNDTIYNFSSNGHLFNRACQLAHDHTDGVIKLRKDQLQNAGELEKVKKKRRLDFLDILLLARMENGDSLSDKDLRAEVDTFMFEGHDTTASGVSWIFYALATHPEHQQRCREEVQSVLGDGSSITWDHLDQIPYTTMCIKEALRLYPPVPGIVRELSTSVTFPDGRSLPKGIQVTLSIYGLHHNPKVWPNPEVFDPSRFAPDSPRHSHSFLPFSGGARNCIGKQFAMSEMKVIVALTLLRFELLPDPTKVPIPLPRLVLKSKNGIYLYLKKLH
The series can be described thus: TST oxidation by rat CYP 4A1.

For series [7], the target named is T3, rat CYP 4A2 (Rattus norvegicus, UniProt P20816).
T3 sequence (P20816 5-504): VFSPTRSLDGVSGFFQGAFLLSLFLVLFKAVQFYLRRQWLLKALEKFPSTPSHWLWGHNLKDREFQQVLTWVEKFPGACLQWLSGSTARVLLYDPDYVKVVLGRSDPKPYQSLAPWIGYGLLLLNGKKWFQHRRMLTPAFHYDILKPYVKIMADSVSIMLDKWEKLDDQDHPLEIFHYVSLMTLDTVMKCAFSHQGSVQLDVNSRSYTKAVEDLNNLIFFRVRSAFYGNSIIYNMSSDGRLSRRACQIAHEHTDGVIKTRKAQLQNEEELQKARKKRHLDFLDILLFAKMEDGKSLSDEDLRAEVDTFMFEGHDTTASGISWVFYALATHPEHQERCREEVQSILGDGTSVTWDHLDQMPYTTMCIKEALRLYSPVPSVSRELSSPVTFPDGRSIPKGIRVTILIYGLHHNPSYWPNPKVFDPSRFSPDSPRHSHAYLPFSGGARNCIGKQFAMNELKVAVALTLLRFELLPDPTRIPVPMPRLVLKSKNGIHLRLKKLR
The series can be described thus: TST oxidation by rat CYP 4A2.

The subject of series [8] is renal vasculature. Conditions: synthetic 20-HETE; cited from earlier work.

Turning to `CCCCCCCCCCCC(=O)O` [lauric acid], the “Lauric acid oxidation rate” value in series [1] (purified recombinant Cyp 4a14) was 4.0±0.8 nmol product/min/nmol of P450.
As for `CCCCC/C=C\C/C=C\C/C=C\C/C=C\CCCC(=O)O` [AA, arachidonic acid], the AA metabolism result in series [1] (purified recombinant Cyp 4a14, even with cytochrome b5, excess P450 reductase, GSH, EDTA, and/or sodium cholate) is “did not metabolize AA”.
For the compound `C[C@]12CCC(=O)C[C@@H]1CC[C@@H]1[C@@H]2CC[C@]2(C)[C@@H](O)CC[C@@H]12` [DHT, 5-dihydrotestosterone], the MABP in series [2] (DHT-treated castrated Cyp 4a14 (+/+) mice, n=10) was 137±4 mm of Hg; in series [2] (DHT-treated control (noncastrated) Cyp 4a14 (+/+) mice, n=10), 140±5 mm of Hg; in series [2] (DHT-treated female Cyp 4a14 (+/+) mice) it was 132±4 mm of Hg; in series [2] (DHT-treated female Cyp 4a14 (−/−) mice), 133±4 mm of Hg. Moreover, the “Effect on hypertensive phenotype (blood pressure)” value in series [2] is “restored the hypertensive phenotype”. Also, the “(20-HETE) % of total” value is given as 82 % of total in series [3] (castrated male (+/+) mice), 82 % of total in series [3] (castrated male (−/−) mice), 76 % of total in series [3] (female (+/+) mice) and 77 % of total in series [3] (female (−/−) mice). The ω-Hydroxylase rate in series [3] (castrated male (+/+) mice) was 228 ± 35 picomoles of product formed per minute per milligram of microsomal protein; in series [3] (castrated male (−/−) mice), 225 ± 23 picomoles of product formed per minute per milligram of microsomal protein; in series [3] (female (+/+) mice), 140 ± 3 picomoles of product formed per minute per milligram of microsomal protein; in series [3] (female (−/−) mice), 164 ± 3 picomoles of product formed per minute per milligram of microsomal protein. Further, the “Cyp 4a12 transcript expression in kidney” value in series [4] is “abundant and selective expression of 4a 12 transcripts in the renal cortex”. Besides, the concentration at 10 days in series [5] (castrated male Cyp 4a14 (+/+) mice) is 2.64 ± 0.3 ng/mL; in series [5] (castrated male Cyp 4a14 (−/−) mice) it was 2.01 ± 0.1 ng/mL.
For `C[C@]12CC[C@H]3[C@@H](CCC4=CC(=O)CC[C@@]43C)[C@@H]1CC[C@@H]2O` [TST, testosterone], in series [2], the “Effect on hypertensive phenotype (blood pressure)” value is on record as “restored the hypertensive phenotype”. Also, the TST oxidation result in series [6] and in series [7] was “neither recombinant Cyp 4a14 nor rat CYPs 4A1 or 4A2 catalyzed TST oxidation” throughout. The “Plasma TST level” value in series [5] (castrated Cyp 4a14 (−/−) mice given TST, n=7) is 1.8±0.04 ng TST/ml.
Regarding `O=C(O)CCC/C=C\C/C=C\C/C=C\C/C=C\CCCCCO` [20-HETE, 20-hydroxyarachidonic acid], in series [8], the Renal vasoconstrictor activity result was “powerful renal vasoconstrictor”.
